The values that follow come from patent publication US6337401B1, “Fluoromethoxyacrylic acid derivatives and their use as pest control agents” (Bayer Aktiengesellschaft, priority 1995, dated 2002).

Structures are written as SMILES.

Holding throughout (assay type): in vivo
Assay [1] relates to Erysiphe graminis f.sp. hordei. The assay can be described thus: Erysiphe test (barley)/protective. To be noted: protective spray, application rate 250 g/ha, evaluation 7 days after inoculation. As for the experimental part:
Erysiphe Test (Barley)/Protective Solvent: 10 parts by weight of N-methyl-pyrrolidone Emulsifier: 0.6 part by weight of alkylaryl polyglycol ether To produce a suitable preparation of active compound, 1 part by weight of active compound is mixed with the stated amounts of solvent and emulsifier, and the concentrate is diluted with water to the desired concentration. To test for protective activity, young plants are sprayed with the preparation of active compound at given application rate. After the spray coating has dried on, the plants are dusted with spores of Erysiphe graminis f.sp. hordei. The plants are placed in a greenhouse at a temperature of about 20° C. and a relative atmospheric humidity of about 80%, in order to promote the development of powdery mildew pustules. Evaluation is carried out 7 days after the inoculation.

Another assay relates to Plasmopara viticola. Kind of assay: Plasmopara test (vine)/protective. Particulars: protective spray, active compound concentration 100 ppm, evaluation 6 days after inoculation. As for the experimental part: Plasmopara Test (Vine)/Protective Solvent: 4.7 parts by weight of acetone Emulsifier: 0.3 part by weight of alkylaryl polyglycol ether To produce a suitable preparation of active compound, 1 part by weight of active compound is mixed with the stated amounts of solvent and emulsifier, and the concentrate is diluted with water to the desired concentration. To test for protective activity, young plants are sprayed with the preparation of active compound. After the spray coating has dried on, the plants are inoculated with an aqueous spore suspension of Plasmopara viticola and then remain in a humidity chamber at 20 to 22° C. and 100% relative atmospheric humidity for 1 day. The plants are then placed in a greenhouse at 21° C. and about 90% atmospheric humidity for 5 days. The plants are then moistened and placed in a humidity chamber for 1 day. Evaluation is carried out 6 days after the inoculation.

The next assay deals with Venturia inaequalis. The assay can be described thus: Venturia test (apple)/protective. Particulars: protective spray, active compound concentration 10 ppm, evaluation 12 days after inoculation. As for the experimental part: Venturia Test (Apple)/Protective Solvent: 4.7 parts by weight of acetone Emulsifier: 0.3 part by weight of alkylaryl polyglycol ether To produce a suitable preparation of active compound, 1 part by weight of active compound is mixed with the stated amounts of solvent and emulsifier, and the concentrate is diluted with water to the desired concentration. To test for protective activity, young plants are sprayed with the preparation of active compound. After the spray coating has dried on, the plants are inoculated with an aqueous conidia suspension of the apple scab causative organism Venturia inaequalis and then left in an incubation cabin at 20° C. and 100% relative atmospheric humidity for 1 day. The plants are then placed in a greenhouse at 20° C. and a relative atmospheric humidity of about 70%. Evaluation is carried out 12 days after the inoculation.

For another assay, the system named is Leptosphaeria nodorum. The assay can be described thus: Leptosphaeria nodorum test (wheat)/protective. To be noted: protective spray, application rate 250 g/ha, evaluation 10 days after inoculation. As for the experimental part:
Leptosphaeria nodorun Test (Wheat)/Protective Solvent: 10 parts by weight of N-methyl-pyrrolidone Emulsifier: 0.6 part by weight of alkylaryl polyglycol ether To produce a suitable preparation of active compound, 1 part by weight of active compound is mixed with the stated amounts of solvent and emulsifier, and the concentrate is diluted with water to the desired concentration. To test for protective activity, young plants are sprayed with the preparation of active compound. After the spray coating has dried on, the plants are sprayed with a spore suspension of Leptosphaeria nodorum. The plants remain for 48 hours in an incubation cabin at 20° C. and 100% relative atmospheric humidity. The plants are placed in a greenhouse at a temperature of about 15° C. and a relative atmospheric humidity of about 80%. Evaluation is effected 10 days after the inoculation.

The subject of a further assay is Sphaerotheca fuliginea. Kind of assay: Sphaerotheca test (cucumber)/protective. To be noted: protective spray, active compound concentration 100 ppm, evaluation 10 days after inoculation. The procedure:
(§1) Sphaerotheca Test (Cucumber)/Protective Solvent: 4.7 parts by weight of acetone Emulsifier: 0.3 part by weight of alkylaryl polyglycol ether To produce a suitable preparation of active compound, 1 part by weight of active compound is mixed with the stated amounts of solvent and emulsifier, and the concentrate is diluted with water to the desired concentration. To test for protective activity, young plants are sprayed with the preparation of active compound. After the spray coating has dried on, the plants are dusted with conidia of the fungus Sphaerotheca fuliginea. The plants are then placed in a greenhouse at 23 to 24° C. and at a relative atmospheric humidity of about 75%. Evaluation is carried out 10 days after the inoculation.

In another assay the test system is Uncinula necator. Kind of assay: Uncinula test (vine)/protective. To be noted: protective spray, evaluation 14 days after inoculation. The procedure: as §1, with “Uncinula” for “Sphaerotheca”, “(Vine)/Protective” for “(Cucumber)/Protective”, “Uncinula necator.” for “Sphaerotheca fuliginea.”, “and” for “and at”, “effected 14” for “carried out 10”

In the case of `COC(=O)/C(=C/OCF)c1ccccc1Oc1nc(-c2ccc(Br)cc2)ns1` [Example 2, methyl 2-{2-[3-(4-bromophenyl)-1,2,4-thiadiazol-5-yloxy]-phenyl}-3-fluoromethoxy-acrylate], the “Efficacy in % of the untreated control” value in assay [1] came out at 81%; in the assay with Plasmopara viticola, 100%; in the assay with Venturia inaequalis, 100%; in the assay with Sphaerotheca fuliginea it was 100%; in the assay on Uncinula necator (active compound concentration 25 ppm (table)) it was 100%. Further, the “Efficacy in %, relative to the untreated control” value with Leptosphaeria nodorum came to 88%. In the assay on Uncinula necator (active compound concentration 10 ppm), this compound had an Efficacy of 100%.
